These results are taken from ChEMBL document CHEMBL4002560, “Synthesis and biological evaluation of novel isoxazolines linked via piperazine to 2- benzoisothiazoles as potent apoptotic agents” (Eur J Med Chem, 2017).

Activity calls are given as the source filed them. No cut-off for these calls is given here.

For test [1], the system named is MDA-MB-231. The test is described as follows: Cytotoxicity against human MDA-MB-231 cells assessed as decrease in cell viability at 2 to 200 uM after 16 hrs by MTT assay. The test is classed as functional, cell-based. A general note: Formazan colour is commonly taken as a measure of viable cells.
For test [2], the system named is EAT. The test is described as follows: Cytotoxicity against mouse EAT cells assessed as decrease in cell viability at 50 uM by trypan blue dye exclusion assay. The test is classed as functional, cell-based. Conditions: TDE = time-dependent effect.
A short description of test [3]: Induction of apoptosis in mouse EAT cells assessed as early apoptotic cells with membrane blebbing and condensed nuclei at 50 uM after 16 hrs by acridine orange/ethidium bromide staining-based fluorescence microscopic method relative to control. The test is classed as functional.
Test [4] is described as follows: Cytotoxicity against mouse EAT cells assessed as cell death at 50 uM after 16 hrs by trypan blue dye exclusion assay relative to control. The test is classed as functional.
Test [5] concerns MDA-MB-231. The test can be described thus: Cytotoxicity against human MDA-MB-231 cells assessed as decrease in cell viability after 16 hrs by MTT assay. The note with it: MDA-MB-231, 16 h. The test is classed as functional, cell-based.

Turning to `COc1cc(C2=NOC(CN3CCN(c4nsc5ccccc45)CC3)C2)cc(OC)c1OC` (stereo unspecified), the outcome in test [1] was inactive. In addition, in test [2], the Activity entry is “Tde”.
With `c1ccc(COc2ccc(C3=NOC(CN4CCN(c5nsc6ccccc56)CC4)C3)cc2)cc1` (stereo unspecified), in test [1], the result was Active. Also, the Activity in test [3] was 59%; in test [4] it was 45.6%; in test [2], “Tde”.
`COc1ccc(C2=NOC(CN3CCN(c4nsc5ccccc45)CC3)C2)cc1OC` (stereo unspecified): the outcome in test [1] was Active. Moreover, the Activity entry in test [2] was “Tde”.
Turning to `COc1ccc(C2=NOC(CN3CCN(c4nsc5ccccc45)CC3)C2)cc1` (stereo unspecified), the outcome in test [1] was Active. For the same compound, the Activity entry in test [2] is “Tde”.
As a reminder, the IC50 is the concentration that gives 50% inhibition. For `Clc1ccc(C2=NOC(CN3CCN(c4nsc5ccccc45)CC3)C2)cc1` (stereo unspecified), the results for the Activity in test [3] and in test [2] were 61.3% and “Tde”, respectively. Also, the IC50 in test [5] came to 75 µM.
For the compound `c1ccc(C2=NOC(CN3CCN(c4nsc5ccccc45)CC3)C2)cc1` (stereo unspecified), in test [1], the result was inactive. In addition, the Activity in test [4] is 50%; in test [2], “Tde”.
For the compound `COc1ccc(C2=NOC(CN3CCN(c4nsc5ccccc45)CC3)C2)cc1OCc1ccccc1` (stereo unspecified), the Activity in test [3] was 50%; in test [4] it was 44.6%; in test [2], “Tde”. In addition, in test [5], the IC50 was found to be 95 µM.
The like results for `COc1cc(C2=NOC(CN3CCN(c4nsc5ccccc45)CC3)C2)ccc1OCc1ccccc1` (stereo unspecified) were, in that order, 67.3%, 53%, “Tde” and 30 µM.
With `Fc1ccc(C2=NOC(CN3CCN(c4nsc5ccccc45)CC3)C2)cc1` (stereo unspecified), the result in test [1] was inactive. Further, in test [2], the Activity entry was “Tde”.
